The record followed here is patent publication US8436007B2, “Inhibitors of protein kinases” (Ingenium Pharmaceuticals GmbH, priority 2007, dated 2013).

Entries after “also recorded” stand apart in the source; their conditions may differ.

Assay [1] has as its system TNFα expression in LPS induced THP-1 macrophages. Kind of assay: In vitro THP-1 assay: TNFα expression in LPS-induced THP-1 macrophages (ELISA of supernatant). The class given is cell-based, human. Conditions: differentiated THP-1 cells, 60 min pre-incubation with compound (0.5 to 5 μM), 100 ng/ml LPS for 4-48 h, triplicates. Here is the method:
(§1) The human THP-1 cell line can be utilized as an in vitro model of cytokine expression as mediated by Lipopolysaccharide (LPS) or Tumor Necrosis Factorα [TNFα]. Monocytic THP-1 cells (ATCC; TIB-202) can be differentiated into macrophage-like cells expressing pro-inflammatory cytokines like TNFα, IL6 and IL1β upon induction with LPS or by TNFα (autocrine induction) itself. THP-1 cells are grown in modified RPMI-1640 medium (ATCC, Cat. No. 30-2001) supplemented with 10% FCS and 1% Pen/Strep. For cytokine inhibition assays, cells are seeded at a density of 5×10^5 cells/ml into 6-well plates in standard growth medium supplemented with 100 ng/ml PMA (Sigma, P1585) to induce differentiation into macrophage-like cells. After 24 hours, the medium is replaced with standard growth medium (without PMA) and the cells are incubated for another 48 hours to complete differentiation. After 72 h of differentiation, the medium is replaced with serum free growth medium, and CDK-inhibiting compounds as well as reference compounds such as positive and negative controls, each dissolved in DMSO are added at concentrations ranging from 0.5 to 5 μM (final concentration of DMSO in the well is 0.1%). Cells are incubated for 60 min with compounds prior to stimulation with 100 ng/ml LPS (Sigma, L2630) for another 4-48 hours. Supernatants are collected and assayed immediately for cytokine expression, e.g. for TNFα, IL-6 and IL-1b using commercially available sandwich ELISA assays (eBioscience, Cat. No 88-7346, 88-7066, 88-7010) or kept frozen at […] until evaluation. Concentrations of TNFα, IL6 and IL1β within the cell culture supernatants are measured by using commercial ELISA Kits (eBioscience) according to the manufacturers' instructions. CDK-inhibitory compounds #1, 5, 6, 8, and 9 were administered at to differentiated THP-1 cells in triplicates as described above (see section 2.). After 60 min of pre-incubation with test or reference compound (SB203580, a p38 inhibitor and BMS345541, an IKK-inhibitor) alone, cells were stimulated with LPS. After incubation for 4-48 h, supernatants were collected and ELISA based determinations of cytokine supernatant concentrations were performed as described in section 3, supra.

Assay [2] concerns IL6 expression in LPS induced THP-1 macrophages. Kind of assay: In vitro THP-1 assay: IL6 expression in LPS-induced THP-1 macrophages (ELISA of supernatant). The class given is cell-based, human. Conditions: differentiated THP-1 cells, 60 min pre-incubation with compound (0.5 to 5 μM), 100 ng/ml LPS for 4-48 h, triplicates. As to the method: as §1
In general terms: In an ELISA, binding on a coated surface is turned into a signal by an enzyme label.

On to `COc1ccccc1-c1ccnc(Nc2cccc(CS(N)(=O)=O)c2)n1` [Compound 1, {3-[4-(2-Methoxy-phenyl)-pyrimidin-2-ylamino]-phenyl}-methanesulfonamide], for which the “inhibition of TNFα expression / protein concentration in the cell supernatant compared to vehicle (DMSO)” value in assay [1] was “significant inhibitory effect; also recorded: significant inhibition”. The “inhibition of IL6 protein concentration in the cell supernatant compared to vehicle (DMSO)” value in assay [2] was “significant inhibitory effect”.

Consider `COc1cc(F)ccc1-c1ccnc(Nc2cccc(CS(N)(=O)=O)c2)n1` [Compound 5, {3-[4-(4-Fluoro-2-methoxy-phenyl)-pyrimidin-2-ylamino]-phenyl}-methanesulfonamide], for which the “inhibition of TNFα expression / protein concentration in the cell supernatant compared to vehicle (DMSO)” value in assay [1] is on record as “significant inhibitory effect; also recorded: significant inhibition”. The “inhibition of IL6 protein concentration in the cell supernatant compared to vehicle (DMSO)” value in assay [2] was “significant inhibitory effect”.

In the case of `COc1ccccc1-c1ccnc(Nc2cccc(CS(=O)(=O)NC3CC3)c2)n1` [Compound 6, N-Cyclopropyl-C-{3-[4-(2-methoxy-phenyl)-pyrimidin-2-ylamino]-phenyl}-methanesulfonamide], in assay [1], the “inhibition of TNFα expression / protein concentration in the cell supernatant compared to vehicle (DMSO)” value is recorded as “significant inhibitory effect; also recorded: significant inhibition”. The “inhibition of IL6 protein concentration in the cell supernatant compared to vehicle (DMSO)” value in assay [2] was “significant inhibitory effect”.

With `COc1ccccc1-c1ccnc(Nc2cccc(CS(=O)(=O)N(C)CCO)c2)n1` [Compound 8, N-(2-Hydroxy-ethyl)-C-{3-[4-(2-methoxy-phenyl)-pyrimidin-2-ylamino]-phenyl}-N-methyl-methanesulfonamide], the “inhibition of TNFα expression / protein concentration in the cell supernatant compared to vehicle (DMSO)” value in assay [1] is on record as “significant inhibitory effect; also recorded: significant inhibition”. In assay [2], the “inhibition of IL6 protein concentration in the cell supernatant compared to vehicle (DMSO)” value is “significant inhibitory effect”.

Consider `COc1ccccc1-c1ccnc(Nc2cccc(CS(=O)(=O)CCO)c2)n1` [Compound 9, 2-{3-[4-(2-Methoxy-phenyl)-pyrimidin-2-ylamino]-phenylmethanesulfonyl}-ethanol], for which the “inhibition of TNFα expression / protein concentration in the cell supernatant compared to vehicle (DMSO)” value in assay [1] is “significant inhibitory effect; also recorded: significant inhibition”. Further, the “inhibition of IL6 protein concentration in the cell supernatant compared to vehicle (DMSO)” value in assay [2] is “significant inhibitory effect”.
